Source: patent US6350773B1, “Therapeutic combinations of (S)-2-(benzylamino-methyl)-2,3,8,9,-tetrahydro 7H-1,4-dioxino{2,3-e}indol-8-one and neuroleptics for the treatment or prevention of psychotic disorders” (American Home Products Corporation, priority 1999, dated 2002)

Columns and labels:
[1] = system: haloperidol-induced catalepsy in rats; assay: Reversal of haloperidol-induced catalepsy in rats; format: in vivo, Sprague-Dawley rats; settings: haloperidol 3 mg/kg i.p.
Description: FIG. 1 is a schematic representation of the effect of (S)-2-(benzylaminomethyl)-2,3,8,9-tetrahydro-7H-1,4-dioxino[2,3-e]indol-8-one (agent) on haloperidol-induced catalepsy in rats at 60 minutes after drug treatment, the time point of greatest reversal as measured by seconds spent in catelepsy over a dose range of 0.003 to 3 mg/kg s.c. of agent. The data are means±SEM.
Tests for reversal of haloperidol-induced catalepsy in rats were conducted according to a variation of the methods of Svensson et al., Neuropharmacology, 1993, 32:1037-1045. Rats (200-250 g) were transported from the colony room to the experimental room and held there for the duration of the experiment. Haloperidol, dissolved in 0.25% Tween 80®, was administered to all animals at a dose of 3 mg/kg i.p. Sixty minutes later, (S)-2-(benzylamino-methyl)-2,3,8,9-tetrahydro-7H-1,4-dioxino[2,3-e]indol-8-one, also dissolved in 0.25% Tween 80®, was administered s.c. at 4 dose levels to 6 male Sprague-Dawley rats per dose level. A control group, assessed simultaneously with (S)-2-(benzylamino-methyl)-2,3,8,9-tetrahydro-7H-1,4-dioxino[2,3-e]indol-8-one treated groups, received a vehicle (VEH) injection of 0.25% Tween 80® at equal volumes (1 ml/kg). Animals were assessed for catalepsy at 30, 60, 90 and 120 minutes after drug administration by placing the animal's forepaws on a wooden cube (8×8×8 cm). The time that the animal remained with at least one of the forepaws on the cube was measured (maximum=60 sec). The righting reflex was then tested and used to discard sedated subjects. Data were analyzed using a two-factor analysis of variance with one repeated measure. A subsequent least significant difference from control test (p<0.05) was used to determine the minimal effective dose (MED) for reversing haloperidol-induced catalepsy and to determine time of onset. A trend test was then used to determine at which time points (if any) there was a dose-related effect. […]

[2] = system: catalepsy in rats; assay: Cataleptogenic potential in rats (no haloperidol); format: in vivo; settings: 0.003 to 3 mg/kg s.c., 60 min post dosing, similar at the other time points
[3] = system: d-amphetamine induced hyperactivity in mice; assay: Antagonism of d-amphetamine-induced hyperlocomotion in mice; format: in vivo; settings: d-amphetamine 2.5 mg/kg i.p.
Description: FIG. 3 is a schematic representation of the effect of (S)-2-(Benzylamino-methyl)-2,3,8,9-tetrahydro-7H-1,4-dioxino[2,3-e]indol-8-one (agent) to reverse d-amphetamine induced hyperactivity in mice. The data are expressed as a percentage of the activity level (horizontal activity counts) observed in mice treated with d-amphetamine alone for eight doses ranging from 0.0001 to 1 mg/kg s.c. of agent. The data are presented as means±SEM.
The ability to antagonize amphetamine-induced hyperlocomotion was tested according to a modified version of the methods of Riffee and Wilcox, Psychopharmacology, 1985, 85:97-101. Mice (25-30 g) were transported from the colony room to the experimental room and held there for the duration of the experiment. […] Control groups, assessed simultaneously with drug-treated groups, received vehicle at equal volumes (10 ml/kg). […] Activity was monitored for 30 minutes with lights on using Omnitech Digiscan® (Columbus, Ohio) infrared monitors. Each infrared beam break was counted by the automated system and totaled at 10 minute intervals. […]
FIG. 3 is a schematic representation of the effect of (S)-2(Benzylamino-methyl)-2,3,8,9-tetrahydro-7H-1,4-dioxino[2,3-e]indol-8-one (agent) to reverse d-amphetamine induced hyperactivity in mice. The data are expressed as a percentage of the activity level observed in mice treated with d-amphetamine alone and are presented as means±SEM.

O=C1Cc2c(ccc3c2O[C@@H](CNCc2ccccc2)CO3)N1 [(S)-2-(benzylamino-methyl)-2,3,8,9-tetrahydro-7H-1,4-dioxino[2,3-e]indol-8-one]
ED50 ([1]; Rattus norvegicus, 1 h, agent s.c., 60 minutes after drug treatment (time point of greatest reversal), read-out: ED50 (dose producing 50% reduction in maximal response), reversal of haloperidol-induced catalepsy): 0.08 mg/kg | time spent in catalepsy position ([1]; agent 0.003 to 3 mg/kg s.c., 60 minutes after drug treatment): dose-dependent decrease | MED (minimal effective dose) for reversing haloperidol-induced catalepsy ([1]; agent s.c. 60 min later, 60 minutes after drug treatment): 0.3 mg/kg | ability to induce catalepsy [2]: lack of ability of the agent to induce significant catalepsy | ED50 ([3]; Mus musculus, agent s.c., horizontal activity counts 10-20 min, read-out: ED50 (dose producing 50% reduction in activity), d-amphetamine-induced hyperactivity): 0.002 mg/kg | d-amphetamine-induced hyperactivity (horizontal activity counts, % of d-amphetamine alone) ([3]; agent 0.0001 to 1 mg/kg s.c.): dose-dependent decreased
